Assay results reported in US7074801B1, “Nitrogen-containing condensed cyclic compound having a pyrazolyl group as a substituent group and pharmaceutical composition thereof” (Eisai Co., Ltd., priority 2001, dated 2006).
Where a name gives a salt, the structure may show the parent alone.

tested on: STAT6; experiment: Inhibitory test on STAT6 activation: IL-4-induced alkali phosphatase STAT6 reporter in 293 cells stably expressing the STAT6 gene and STAT6 reporter gene; format: cell-based; details: HEK293; Table 1; 1 ng/ml human recombinant IL-4, 16 hours, 293 cells with STAT6 reporter; read-out: Inhibitory activity IC50 (concentration at which the alkali phosphatase activity induced by IL-4 was inhibited by 50%)
Procedure: The inhibitory action of the present compound on activation of STAT6 was evaluated according to the following experiments.
1) Construction of a STAT6 Reporter Gene
An oligonucleotide of SEQ ID NO:1 in which three STAT6-binding regions on a human immunoglobulin germline E gene promoter had been linked was mixed with its complementary chain, thermally denatured and annealed, and 5′- and 3′-ends thereof were cleaved with restriction enzymes Kpn I (Code No. 1068A, Takara Shuzo) and Xba I (Code No. 1093A, Takara Shuzo) respectively, and the resulting fragment was cloned into a Kpn I/Xba I site of pUG-BGH-PLAP vector (described in Molecular Pharmacology, 49:860–873, 1996). To induce a basic transcriptional factor, a TK promoter region of herpes virus was cloned into an Xba I/Hind III (Code No. 1060A, Takara Shuzo) site of the pUG-BGH-PLAP vector. To obtain a stably expressing cell strain, a neomycin resistance gene (PGK-neo expression cassette) was integrated with an Sal I (Code No. 1080A, Takara Shuzo) of this vector. Cloning of the TK promoter and PGK-neo expression cassette was carried out according to Molecular Pharmacology, 49:860–873, 1996.
The underlined sites are a Kpn I recognition site and Xba I recognition site respectively. 2) Construction of an STAT6 Expression Vector
An oligonucleotide of SEQ ID NO:2 containing an initiation codon of STAT6 gene and an oligonucleotide of SEQ ID NO:3 containing a stop codon were used, and total RNA was prepared from human peripheral blood cells by using RNeasy Mini kit (Code No. 74104, OIAGEN). Then, cDNA was prepared by reverse transcription reaction using Takara RNA LA PCR kit (Code No. RR012A, Takara Shuzo) and then subjected to PCR reaction with primers of SEQ ID NOS:2 and 3, to amplify the STAT6 gene. • (SEQ ID NO:2) 5′-[…]-3′ The underlined site is an EcoR I recognition site. • (SEQ ID NO:3) 5′-[…]-3′ The underlined site is an Xho I recognition site.
The PCR product was digested with EcoR I (Code No. 1040A, Takara Shuzo) and Xho I (1094A, Takara Shuzo), and the digested fragment was isolated on an agarose gel. The isolated fragment was integrated into a vector fragment obtained by digesting pcDNA3.1 (+) (Code No. U790-20, Invitrogen) vector with EcoRI/Xho I.
3) Introduction of the Gene and Preparation of a Stably Expressing Cell Strain
Human fetal kidney-derived 293 cells (American Type Culture Collection), 3.0×10^5 cells, were spread on a Falcon tissue culture 6-well plate (Code No. 35-3046, Becton Dickinson) and cultured overnight. 1.5 μg of the prepared STAT6 reporter gene, 1.5 μg of the STAT6 gene and 20 μl of lipofectamine (Code No. 18324-012, GIBCO BRL) were mixed in 0.3 ml OPTI-MEM medium (Code No. 31985-070) and left at room temperature for 20 minutes. Thereafter, 1.2 ml OPTI-MEM medium was further added to the cells washed with OPTI-MEM medium not containing fetal bovine serum, and the cells were cultured for 2 hours. 1.5 ml medium containing fetal bovine serum was added thereto, and the cells were cultured for additional 19 hours. The medium was exchanged with a fresh one, and Geneticin (Code No. G-5013, SIGMA) was added at a concentration of 1 mg/ml, and the cells were cultured, and chemical-resistant cells were selected. The resulting chemical-resistant cells were floated in a medium containing 1 mg/ml Geneticin, then spread at a density of 0.5 cell/well on a 96-well microplate (Code No. 35-3072, Becton Dickinson) and cloned to give a clone expressing alkali phosphatase in response to IL-4.
4) Inhibitory Test on STAT6 Activation
The cells stably expressing the STAT6 gene and STAT6 reporter gene and expressing alkali phosphatase in response to IL-4 were spread at a density of 5000 cells/180 μl/well on a 96-well microplate (Code No. 35-3072, Becton Dickinson) and cultured overnight. […]

IC50 [µM]	SMILES
< 0.01	CC(=O)NCCCOc1ccc(-c2cnc3ccc(-c4c[nH]nc4-c4ccc(F)cc4)cn23)cc1 [Example 87, N-[3-(4-{6-[3-(4-Fluorophenyl)-1H-4-pyrazolyl]imidazo-[1,2-a]pyridin-3-yl}phenoxy)propyl]acetamide]
< 0.01	CC(C)=Cc1nc(-c2cnc3ccc(-c4c[nH]nc4-c4ccccc4F)cn23)no1 [Example 592]
< 0.01	NC(=O)c1ccc(-c2cnc3ccc(-c4c[nH]nc4-c4ccc(F)cc4)cn23)cc1 [Example 78, 4-{6-[3-(4-Fluorophenyl)-1H-4-pyrazolyl]imidazo[1,2-a]-pyridin-3-yl}benzamide dihydrochloride]
0.01 to 0.1	COc1ccc(-c2ncnc3ccc(-c4c[nH]nc4-c4ccc(F)cc4)cc23)cc1 [Example 254, 6-[3-(4-Fluorophenyl)-1H-4-pyrazolyl]-4-[4-(methoxyphenyl)-quinazolinedihydrochloride]
< 0.01	Fc1ccc(-c2n[nH]cc2-c2ccc3ncc(-c4noc(C(F)F)n4)n3c2)c(F)c1 [Example 589, 6-[3-(2,4-Difluorophenyl)-1H-4-pyrazolyl]-3-(5-difluoromethyl-[1,2,4]oxadiazol-3-yl)-imidazo[1,2-a]-pyridine trihydrochloride]
< 0.01	N#Cc1ccc(-c2cnc3ccc(-c4c[nH]nc4-c4ccc(F)cc4)cn23)cc1 [Example 77, 4-{6-[3-(4-Fluorophenyl)-1H-4-pyrazolyl]imidazo[1,2-a]-pyridin-3-yl}benzonitrile dihydrochloride]
0.01 to 0.1	Cc1cnc(NC(=O)c2ccc(-c3cnc4ccc(-c5cn[nH]c5)cn34)nc2)s1 [Example 655, N3-(5-Methyl-1,3-thiazol-2-yl)-6-[6-(1H-4-pyrazolyl)-imidazo[1,2-a]pyridin-3-yl]nicotinic acid amide trihydrochloride]
< 0.01	NC(=O)[C@@H]1CCCN1Cc1ccc(-c2cnc3ccc(-c4c[nH]nc4-c4ccc(F)cc4)cn23)s1 [Example 92, (2S)-1-[(5-{6-[3-(4-Fluorophenyl)-1H-4-pyrazolyl]-imidazo-[1,2-a]pyridin-3-yl}-2-thienyl)methyl]tetrahydro-1H-2-pyrrole carboxyamide trihydrochloride]
< 0.01	C[C@H](NC(=O)c1ccc(-c2cnc3ccc(-c4cn[nH]c4)cn23)cc1F)C(=O)c1ccc(F)cc1 [Example 672, N1-[(1S)-2-(4-Fluorophenyl)-1-methyl-2-oxoethyl]-2-fluoro-4-[6-(1H-4-pyrazolyl)imidazo[1,2-a]pyridin-3-yl]benzamide hydrochloride]
< 0.01	Fc1ccc(-c2n[nH]cc2-c2ccc3ncc(-c4nnc(C5CC5)s4)n3c2)c(F)c1 [Example 556, 3-(5-Cyclopropyl[1,3,4]thiadiazol-2-yl)6-[3-(2,4-difluorophenyl)-1H-pyrazol-4-yl]imidazo[1,2-a]pyridine]
0.01 to 0.1	N#Cc1ccc(-c2cnc3ccc(-c4c[nH]nc4-c4ccc(F)cc4)cn23)s1 [Example 71, 5-{6-[3-(4-Fluorophenyl)-1H-4-pyrazolyl]imidazo[1,2-a]-pyridin-3-yl}-2-thiophene carboxynitrile dihydrochloride]
< 0.01	Fc1cccc(F)c1-c1n[nH]cc1-c1ccc2ncc(-c3noc(CCC(F)(F)F)n3)n2c1 [Example 601, 3-[5-(3,3,3-Trifluoropropyl)-[1,2,4]oxadiazol-3-yl]-6-[3-(2,6-difluorophenyl)-1H-4-pyrazolyl]-imidazo[1,2-a]pyridine]
< 0.01	CC(C)c1nc(-c2cnc3ccc(-c4c[nH]nc4-c4ccccc4F)cn23)no1 [Example 605, 6-[3-(2-Fluorophenyl)-1H-4-pyrazolyl]-3-(5-isopropyl-[1,2,4]oxadiazol-3-yl)-imidazo[1,2-a]pyridine trihydrochloride]
< 0.01	Cc1ccnc(NC(=O)c2ccc(-c3cnc4ccc(-c5cn[nH]c5)cn34)cc2F)c1 [Example 681, N1-(4-Methyl-2-pyridyl)-2-fluoro-4-[6-(1H-4-pyrazolyl)-imidazo[1,2-a]pyridin-3-yl]benzamide dihydrochloride]
< 0.01	O=C(NC1(c2ccc(F)cc2F)CC1)c1ccc(-c2cnc3ccc(-c4cn[nH]c4)cn23)cc1F [Example 661, N1-[1-(2,4-Difluorophenyl)cyclopropyl]-2-fluoro-4-[6-(1H-4-pyrazolyl)imidazo[1,2-a]pyridin-3-yl]benzamide hydrochloride]

same assay, conditions: HEK293; Table 2; 1 ng/ml human recombinant IL-4, 16 hours, 293 cells with STAT6 reporter; read-out: Inhibitory activity IC50 (concentration at which the alkali phosphatase activity induced by IL-4 was inhibited by 50%)

IC50 [µM]	SMILES
< 0.01	Cc1cn(-c2ncnc3ccc(-c4c[nH]nc4-c4c(F)cccc4F)cc23)cn1 [Example 914, 6-[3-(2,6-Difluorophenyl)-1H-pyrazol-4-yl]-4-(4-methylimidazol-1-yl) quinazoline]
0.01 to 0.1	O=C(Nc1ccc(F)cc1F)c1ccc(-c2ncnc3ccc(-c4cn[nH]c4)cc23)s1 [Example 869, 5-[6-(1H-Pyrazol-4-yl)quinazolin-4-yl]thiophen-2-carboxylic acid (2,4-difluorophenyl)amide dihydrochloride]
0.1 to 1	CS(=O)(=O)c1ccc(-c2ncnc3ccc(-c4c[nH]nc4[N+](=O)[O-])cc23)s1 [Example 901, 4-(5-Methylsulfonylthiophen-2-yl)-6-(3-nitro-1H-pyrazol-4-yl) quinazoline]
0.01 to 0.1	O=S(=O)(CCO)c1cccc(N2CCN(c3ncnc4ccc(-c5cn[nH]c5)cc34)CC2)c1 [Example 951, 2-(3-{4-[6-(1H-Pyrazol-4-yl)quinazolin-4-yl]piperazin-1-yl}benzenesulfonyl)ethanol tri-trifluoroacetate]
< 0.01	CSc1ccc(-c2n[nH]cc2-c2ccc3ncnc(-c4ccc(S(C)(=O)=O)s4)c3c2)cc1 [Example 895, 6-[3-(4-Methylsulfanylphenyl)-1H-pyrazol-4-yl]-4-(5-methylsulfonylthiophen-2-yl) quinazoline]
0.1 to 1	CS(=O)(=O)c1ccc(-c2ncnc3ccc(-c4c[nH]nc4COc4ccc(F)cc4F)cc23)s1 [Example 905, 6-[3-(2,4-Difluorophenoxymethyl)-1H-pyrazol-4-yl]-4-(5-methylsulfonylthiophen-2-yl) quinazoline]
< 0.01	CS(=O)(=O)c1cccc(N2CCN(c3ncnc4ccc(-c5cn[nH]c5)cc34)CC2)c1 [Example 946, 4-[4-(3-Methylsulfonylphenyl)piperazin-1-yl]-6-(1H-pyrazol-4-yl)quinazoline tri-trifluoroacetate]
0.1 to 1	CN(c1ccccc1)S(=O)(=O)c1ccc(-c2ncnc3ccc(-c4c[nH]nc4-c4ccc(F)cc4)cc23)s1 [Example 856, 5-{6-[3-(4-Fluorophenyl)-1H-pyrazol-4-yl]quinazolin-4-yl}-thiophen-2-sulfonic acid methylphenylamide dihydrochloride]
0.1 to 1	O=S(=O)(c1ccc(-c2ncnc3ccc(-c4c[nH]nc4-c4ccc(F)cc4)cc23)s1)N1CCCC1 [Example 850, 6-[3-(4-Fluorophenyl)-1H-pyrazol-4-yl]-4-[5-(pyrrolidine-1-sulfonyl)thiophen-2-yl]quinazoline dihydrochloride]
0.01 to 0.1	COc1nnc(-c2ncnc3ccc(-c4c[nH]nc4-c4c(F)cccc4F)cc23)o1 [Example 909, 6-[3-(2,6-Difluorophenyl)-1H-pyrazol-4-yl]-4-(5-methoxy|[1,3,4]oxadiazol-2-yl) quinazoline]
